Measured values: ChEMBL document CHEMBL3507680, “University of Dundee, Gates Library screen for HepG2 cell viability”

Experiment: Human HepG2 cell viability assay in 384 well format
Assay type: toxicity, cell-based
Design: dose 125 nL, time 70.5 hour; concentration not given beside the values
Settings: HepG2 cells, read-out: Inhibition

| Structure (SMILES) | cytotoxicity at 70.5 h |
| --- | --- |
| COC(=O)CC(c1cccc(OC(F)F)c1)c1oc(C)cc(=O)c1O (configuration not stated) | 7.18% |
| COc1ccc2nnc(CCCC(=O)NCCc3ccncc3)n2n1 | -5% |
| Cc1ccc(CN2CC[C@@H]3CN(S(C)(=O)=O)CCO[C@@H]3C2)o1 | 7.49% |
| Cc1cnc(N2C[C@@H]3[C@@H](C(=O)NC(C)C)CCS(=O)(=O)[C@@H]3C2)nc1 | 18% |
| O=C(NC1CCC1)[C@H]1C[C@H]2NCCO[C@@H]2C1 | 4.07% |
| O=C(NC1CCCCC1)N1C[C@@H]2OCCN(C(=O)c3ccco3)[C@@H]2C1 | 0.645% |
| COc1cc(N2CC[C@@H](OC)[C@@H]2Cc2ccccc2)ncn1 | -1.02% |
| O=C(N1CCOCC1)N1C[C@@H]2OCCN(C(=O)c3ccco3)[C@@H]2C1 | -1.55% |
| CC1CC2(CCN(C(=O)c3csnn3)CC2)c2ccccc21 (configuration not stated) | 0.655% |
| CC(C)Nc1nc2c(c(NC3CC3)n1)CCN(C(=O)C1CCOC1)CC2 (configuration not stated) | 1.81% |
| CNC(=O)C1CC2(CCN(C(=O)c3csnn3)CC2)c2ccccc21 (configuration not stated) | 0.474% |
| Cc1cc(CN2C[C@@H]3CN(Cc4ccsc4)CCO[C@@H]3C2)no1 | 7.7% |
| COCCN(C)C(=O)c1nc2c(s1)CCCN2C | 11.8% |
| CC(C)N1CCCc2sc(C(=O)NC3CC3)nc21 | 8.47% |
| COCCN(C)C(=O)c1nc2c(s1)CCCN2c1ncccn1 | -3.25% |
| CC(C)NC(=O)[C@H]1CCS(=O)(=O)[C@@H]2CN(c3ncc(F)cn3)C[C@H]12 | -2.87% |
| O=C(c1cnccn1)N1CC[C@H]2[C@H]1CCN2S(=O)(=O)C1CC1 | -4.25% |
| COCCO[C@H]1CCN(c2cc(OC)ncn2)[C@H]1Cc1ccncc1 | -1.44% |
| O=C(c1ccnnc1)N1CC[C@H]2[C@H]1CCN2S(=O)(=O)C1CC1 | -0.791% |
| Cn1nccc1-c1nc2c(cc1C(=O)O)CCN(CC1CC1)CC2 | 12.7% |
| CCC1=N[C@@]2(CC[C@@H]3CN(CC4CC4)C[C@@H]32)C(=O)N1 | 7.37% |
| CN(C)C(=O)N1CCCC2(CCN(Cc3ccc(Cl)c(F)c3)C2)C1 (configuration not stated) | -6.53% |
| O=C(C1CCSCC1)N1CCC2(CC1)COC(COCC1CC1)C2 (configuration not stated) | -11.3% |
| CCc1ccc(CN2CCC3(CCCN(C(=O)N(C)C)C3)C2)o1 (configuration not stated) | -10.4% |
| CN(C)C(=O)CNC(=O)c1nc2c(s1)CCCN2Cc1ccccc1 | -2.15% |
| CC(=O)N1CCO[C@@H]2CN(S(=O)(=O)c3ccccc3F)C[C@@H]2C1 | -10.2% |

| Structure (SMILES) | cytotoxicity at 70.5 h |
| --- | --- |
| O=C1NCCO[C@H]2CN(C(=O)CCc3ccccc3Cl)CC[C@@H]12 | 22.6% |
| COCC1c2nnn(C)c2CCN1C(=O)Cc1ccc2c(c1)OCO2 (configuration not stated) | 9.52% |
| O=C(c1ccnnc1)N1C[C@@H]2CN(c3ncccn3)C[C@@H]2C1 | 7.41% |
| CN(C)c1ncnc2c1CCN(c1ccccc1)CC2 | 13.6% |
| Cn1cnc(C(=O)N2CC3(CCN(S(=O)(=O)c4ccccc4)C3)C2)c1 | -7.62% |
| CS(=O)(=O)N1CCC2(CCCN(c3ncc(F)cn3)C2)C1 (configuration not stated) | -7.4% |
| CCS(=O)(=O)N1CCCC2(CCCN2C(=O)c2cn(C)cn2)C1 (configuration not stated) | -8.17% |
| O=C(c1ccnnc1)N1CC2(CCN(c3ncccn3)C2)C1 | -5.07% |
| COCC(=O)N1CC2(CCN(c3ccccc3)C2)C1 | -5.97% |
| O=C(c1ccoc1)N1C[C@@H]2CN(c3ncccn3)C[C@@H]2C1 | -4.89% |
| COc1ncnc2c1CCN(c1cccc(F)c1)CC2 | -6.07% |
| Cc1cc(F)ccc1NC(=O)Cn1cc(C(=O)O)ccc1=O | -18.2% |
| COc1cccc(C2C3=C(COC3=O)Nc3[nH]nc(C)c32)c1O (configuration not stated) | -3.51% |
| CC(C)NC(=O)c1cc2c([nH]c1=O)CC(c1cccs1)CC2=O (configuration not stated) | 6.88% |
| COc1cc(CO)c(OC)c2c1OCO2 | -8.39% |
| Cc1ccc(N2Cc3nc(=O)[nH]n3C2=O)cc1 | 6.49% |
| O=C1N(c2cccc(Cl)c2)Cc2nc(=O)[nH]n21 | -3.18% |
| COC(=O)CNC(=O)CSCc1nc(O)c2cc(C)sc2n1 | 4.84% |
| COc1cc(OC)cc(C2SCC(=O)Nc3ccsc32)c1 (configuration not stated) | -4.19% |
| CC(C)c1cc2c(O)nc(CSCC(=O)NCc3ccncc3)nc2s1 | -12.9% |
| O=C1CC(c2ccc(C(=O)O)cc2)c2ncn(-c3ccccc3F)c2N1 (configuration not stated) | -11.1% |
| O=C1CC(c2ccc(C(=O)O)cc2)c2ncn(-c3ccc(F)cc3)c2N1 (configuration not stated) | -4.89% |
| COCCNC(=O)CSCc1nc(O)c2cc(C(C)C)sc2n1 | -8.44% |
| COc1ccc(N2Cc3nc(=O)[nH]n3C2=O)cc1 | 6.34% |
| O=C1CC(c2ccc(C(=O)O)cc2)c2ncn(-c3cccc(Cl)c3)c2N1 (configuration not stated) | -9.82% |
| Cn1nnc2c1CCN(Cc1ccco1)C2COCc1ccccc1 (configuration not stated) | 1.81% |

| Structure (SMILES) | cytotoxicity at 70.5 h |
| --- | --- |
| CCN(C)c1ncnc2c1CCN(C(=O)NCc1cccnc1)CC2 | 0.595% |
| CN(C)C(=O)NCc1nnn2c1CN(CC1CCOCC1)CCC2 | 0.222% |
| Cn1cc(CN2CCc3c(nnn3C)C2COCc2ccccc2)cn1 (configuration not stated) | 32.3% |
| COCCO[C@H]1CCN(c2cc(OC)ncn2)[C@H]1Cc1cccnc1 | 7.05% |
| COc1cc(N2C[C@H]3CN(C(=O)c4cccnc4)C[C@H]3C2)ncn1 | -2.8% |
| Cc1cc(CN2C[C@@H]3CN(C(=O)c4ccco4)CCO[C@@H]3C2)no1 | -5.36% |
| Cc1nc2c(c(NC(C)C)n1)CCN(C(=O)c1cc[nH]n1)CC2 | -8.54% |
| c1ccc(CN2CCOC3(COCCN(c4ncccn4)C3)C2)nc1 (configuration not stated) | -12.3% |
| CCC1=N[C@@]2(CC[C@@H]3CN(Cc4ccccc4C)C[C@@H]32)C(=O)N1 | -4.43% |
| CN(C)C(=O)NCc1ncn2c1CN(Cc1ccco1)CCC2 | -6.46% |
| Cc1cnnn1Cc1nnn2c1CN(Cc1ccccn1)CCC2 | -7.24% |
| c1ccc(CN2CCCn3nnc(Cn4cccc4)c3C2)nc1 | -7.02% |
| CN1CCO[C@@H]2CN(S(=O)(=O)c3ccccc3)CC[C@@H]2C1 | -5% |
| c1cnc(N2CCOCC3(CN(Cc4ccsc4)CCO3)C2)nc1 (configuration not stated) | -3.74% |
| Cc1cnnn1Cc1nnn2c1CN(Cc1cccs1)CCC2 | -1.92% |
| CN1CCO[C@@H]2CN(S(=O)(=O)c3ccc(F)cc3)CC[C@@H]2C1 | -1.86% |
| CC1=N[C@@]2(CC[C@@H]3CN(CC(C)C)C[C@@H]32)C(=O)N1C | -5.39% |
| c1coc(CNc2ncc3c(n2)C2(CCNC2)COC3)c1 (configuration not stated) | -4.32% |
| c1cnc(N2CCOC3(COCCN(Cc4cc[nH]n4)C3)C2)nc1 (configuration not stated) | -8.27% |
| COCCC(=O)N1CCN(CC2CC2)c2nc(C)ccc2C1 | 9.16% |
| c1c2c(nn1CC1CC1)C(CNC1CCOCC1)OCC2 (configuration not stated) | -11.6% |
| CN1CC2(CCN(C(=O)Cc3ccccn3)CC2)OCC1=O | -5.16% |
| c1c2c(nn1CC1CCOCC1)C(CNC1CCOCC1)OCC2 (configuration not stated) | 7.06% |
| Cn1cc2c(n1)C(CNC1CCOCC1)OCC2 (configuration not stated) | -5.41% |
| O=C(O)CN1CCC(F)(F)C2(CCN(c3ccccn3)C2)C1 (configuration not stated) | 2.21% |
